Reference: the NIST ThermoML archive (doi:10.1016/j.jct.2004.11.007)
Numbers after ± are expanded uncertainties.

How the values were obtained:
[1] = for vapor or sublimation pressure: Liquid; for Triple point temperature: Crystal
[2] = Molar enthalpy of transition or fusion; conditions: Crystal; DSC
[3] = Solid-liquid equilibrium temperature; conditions: 100 kPa; Crystal

SMILES | vapor or sublimation pressure ([1]; 373.15 K) | Triple point temperature ([1]; visual observation) | vapor or sublimation pressure ([1]; 333.15 K) | other results
CC(C)=O [acetone] | – | – | 115.7 ± 5.4 kPa | –
CN1CCCC1=O [N-methylpyrrolidone] | 3.6 ± 2.6 kPa | 249.68 ± 0.39 K | 0.5 kPa | Molar enthalpy of transition or fusion [2]: 2.64 ± 0.0693 kcal/mol
CCC(=O)CC [pentan-3-one] | 95.9 ± 4.9 kPa | 234.36 ± 0.39 K | – | –
O=C1CCCC1 [cyclopentanone] | – | 220.77 ± 0.39 K | – | –

Second part, led by results:

vapor or sublimation pressure ([1]; 373.15 K) | Triple point temperature ([1]; visual observation) | SMILES | vapor or sublimation pressure ([1]; 333.15 K) | other results
– | 241.77 ± 0.39 K | CCCC(=O)CCC [4-heptanone] | – | –
43.8 ± 1.8 kPa | – | CCCCC(C)=O [2-hexanone] | – | Triple point temperature [1]: 218.42 ± 2 K; Solid-liquid equilibrium temperature [3]: 215.57 ± 2 K
